Test results from ChEMBL document CHEMBL1255183, “Role of the phenolic hydroxyl group in the biological activities of simplified analogue of aplysiatoxin with antiproliferative activity” (Bioorg Med Chem Lett, 2010).

Legend:
[1] = biological target: Protein kinase C theta type (Homo sapiens, UniProt Q04759); experiment: Inhibition of [3H]PDBu binding to PKCtheta C1B peptide
[2] = biological target: Protein kinase C beta type (Homo sapiens, UniProt P05771); experiment: Inhibition of [3H]PDBu binding to PKC beta C1A peptide
[3] = biological target: Protein kinase C alpha type (Homo sapiens, UniProt P17252); experiment: Inhibition of [3H]PDBu binding to PKC alpha C1A peptide
[4] = biological target: T1, Protein kinase C epsilon type (Homo sapiens, UniProt Q02156); experiment: Inhibition of [3H]PDBu binding to PKCepsilon C1B peptide
T1 sequence (Q02156 whole entry): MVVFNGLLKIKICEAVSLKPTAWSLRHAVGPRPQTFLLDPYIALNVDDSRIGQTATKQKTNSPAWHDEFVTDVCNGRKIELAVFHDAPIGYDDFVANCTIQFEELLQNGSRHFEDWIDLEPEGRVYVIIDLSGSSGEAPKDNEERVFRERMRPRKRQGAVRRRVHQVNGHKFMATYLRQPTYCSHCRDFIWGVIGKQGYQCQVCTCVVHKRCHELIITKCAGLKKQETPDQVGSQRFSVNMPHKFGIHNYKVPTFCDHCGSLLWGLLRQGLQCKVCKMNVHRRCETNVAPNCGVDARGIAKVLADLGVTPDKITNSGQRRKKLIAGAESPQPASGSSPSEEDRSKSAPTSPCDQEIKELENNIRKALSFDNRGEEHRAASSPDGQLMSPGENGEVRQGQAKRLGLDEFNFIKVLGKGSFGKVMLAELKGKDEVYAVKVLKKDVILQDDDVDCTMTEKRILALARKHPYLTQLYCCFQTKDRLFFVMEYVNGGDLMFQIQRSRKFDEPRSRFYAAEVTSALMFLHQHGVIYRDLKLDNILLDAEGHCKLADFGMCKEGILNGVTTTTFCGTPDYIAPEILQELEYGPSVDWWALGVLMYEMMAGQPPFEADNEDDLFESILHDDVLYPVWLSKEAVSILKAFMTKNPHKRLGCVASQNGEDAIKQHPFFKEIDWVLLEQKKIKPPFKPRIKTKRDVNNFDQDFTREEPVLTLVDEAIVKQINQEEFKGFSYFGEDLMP

[5] = biological target: T2, Protein kinase C delta type (Homo sapiens, UniProt Q05655); experiment: Inhibition of [3H]PDBu binding to PKC delta C1B peptide
[6] = biological target: Protein kinase C gamma type (Homo sapiens, UniProt P05129); experiment: Inhibition of [3H]PDBu binding to PKC gamma C1A peptide
[7] = biological target: T2, Protein kinase C delta type; experiment: Inhibition of [3H]PDBu binding to PKC delta C1A peptide
[8] = biological target: Protein kinase C eta type (Homo sapiens, UniProt P24723); experiment: Inhibition of [3H]PDBu binding to PKCeta C1B peptide
[9] = system: OVCAR-3; experiment: Cytotoxicity against human OVCAR-3 cells; type: functional
[10] = system: SNB-78; experiment: Cytotoxicity against human SNB78 cells; type: functional
[11] = system: HCC 2998; experiment: Cytotoxicity against human HCC2998 cells; type: functional
[12] = system: PC-3; experiment: Cytotoxicity against human PC3 cells; type: functional
[13] = system: MCF7; experiment: Cytotoxicity against human MCF7 cells; type: functional
[14] = system: Raji; experiment: Inhibition of TPA-induced EBA-early antigen production in human Raji cells at 1 uM; type: cell-based; set-up: scale not given: the % may be the effect or the level left; settings: human gammaherpesvirus 4
[15] = system: HT-29; experiment: Cytotoxicity against human HT-29 cells; type: functional
[16] = system: SNB-75; experiment: Cytotoxicity against human SNB75 cells; type: functional
[17] = Cytotoxicity against human MKN1 cells; type: functional; settings: MKN-1
[18] = system: HCT-116; experiment: Cytotoxicity against human HCT116 cells; type: functional
[19] = system: MKN-45; experiment: Cytotoxicity against human MKN45 cells; type: functional
[20] = system: OVCAR-4; experiment: Cytotoxicity against human OVCAR4 cells; type: functional
[21] = system: NCI-H23; experiment: Cytotoxicity against human NCI-H23 cells; type: functional
[22] = system: NCI-H460; experiment: Cytotoxicity against human NCI-H460 cells; type: functional
[23] = system: SF-295; experiment: Cytotoxicity against human SF295 cells; type: functional
[24] = system: DU-145; experiment: Cytotoxicity against human DU145 cells; type: functional
[25] = Cytotoxicity against human RXF631L cells; type: functional; settings: RXF 631
[26] = Cytotoxicity against human Raji cells assessed as viability at 1 uM in presence of TPA; type: cell-based; settings: read-out: Activity
[27] = system: DMS-114; experiment: Cytotoxicity against human DMS114 cells; type: functional
[28] = system: MKN-28; experiment: Cytotoxicity against human MKN28 cells; type: functional
[29] = system: LOX IMVI; experiment: Cytotoxicity against human LOXIMVI cells; type: functional
[30] = Cytotoxicity against human Raji cells assessed as viability at 1 uM; type: cell-based; settings: read-out: Activity
[31] = system: DMS-273; experiment: Cytotoxicity against human DMS273 cells; type: functional
[32] = system: SF-268; experiment: Cytotoxicity against human SF268 cells; type: functional
[33] = system: OVCAR-8; experiment: Cytotoxicity against human OVCAR8 cells; type: functional
[34] = system: MKN-7; experiment: Cytotoxicity against human MKN7 cells; type: functional
[35] = system: St-4; experiment: Cytotoxicity against human St-4 cells; type: functional
[36] = Cytotoxicity against human HBC4 cells; type: functional
[37] = system: U-251; experiment: Cytotoxicity against human U251 cells; type: functional
[38] = system: Raji; experiment: Induction of EBA-early antigen production in human Raji cells at 1 uM; type: cell-based; settings: human gammaherpesvirus 4
[39] = system: SK-OV-3; experiment: Cytotoxicity against human SKOV3 cells; type: functional
[40] = system: ACHN; experiment: Cytotoxicity against human ACHN cells; type: functional
[41] = system: Raji; experiment: Inhibition of TPA-induced EBA-early antigen production in human Raji cells at 10^-7 M; type: cell-based; set-up: scale not given: the % may be the effect or the level left; settings: human gammaherpesvirus 4
[42] = system: MDA-MB-231; experiment: Cytotoxicity against human MDA-MB-231 cells; type: functional
[43] = system: NCI-H522; experiment: Cytotoxicity against human NCI-H522 cells; type: functional
[44] = Cytotoxicity against human Raji cells assessed as viability at 10^-7 M in presence of TPA; type: cell-based; settings: read-out: Activity
[45] = system: MKN-74; experiment: Cytotoxicity against human MKN74 cells; type: functional
[46] = Cytotoxicity against human BSY1 cells; type: functional; settings: BSY-1
[47] = system: OVCAR-5; experiment: Cytotoxicity against human OVCAR5 cells; type: functional
[48] = Cytotoxicity against human Raji cells assessed as viability at 10^-7 M; type: cell-based; settings: read-out: Activity
[49] = system: KM12; experiment: Cytotoxicity against human KM12 cells; type: functional
[50] = system: Raji; experiment: Induction of EBA-early antigen production in human Raji cells at 10^-7 M; type: cell-based; settings: human gammaherpesvirus 4
[51] = system: SF-539; experiment: Cytotoxicity against human SF539 cells; type: functional
[52] = system: HCT-15; experiment: Cytotoxicity against human HCT15 cells; type: functional
[53] = system: A549; experiment: Cytotoxicity against human A549 cells; type: functional
[54] = system: NCI-H226; experiment: Cytotoxicity against human NCI-H226 cells; type: functional

Chain of Protein kinase C eta type (P24723 whole entry): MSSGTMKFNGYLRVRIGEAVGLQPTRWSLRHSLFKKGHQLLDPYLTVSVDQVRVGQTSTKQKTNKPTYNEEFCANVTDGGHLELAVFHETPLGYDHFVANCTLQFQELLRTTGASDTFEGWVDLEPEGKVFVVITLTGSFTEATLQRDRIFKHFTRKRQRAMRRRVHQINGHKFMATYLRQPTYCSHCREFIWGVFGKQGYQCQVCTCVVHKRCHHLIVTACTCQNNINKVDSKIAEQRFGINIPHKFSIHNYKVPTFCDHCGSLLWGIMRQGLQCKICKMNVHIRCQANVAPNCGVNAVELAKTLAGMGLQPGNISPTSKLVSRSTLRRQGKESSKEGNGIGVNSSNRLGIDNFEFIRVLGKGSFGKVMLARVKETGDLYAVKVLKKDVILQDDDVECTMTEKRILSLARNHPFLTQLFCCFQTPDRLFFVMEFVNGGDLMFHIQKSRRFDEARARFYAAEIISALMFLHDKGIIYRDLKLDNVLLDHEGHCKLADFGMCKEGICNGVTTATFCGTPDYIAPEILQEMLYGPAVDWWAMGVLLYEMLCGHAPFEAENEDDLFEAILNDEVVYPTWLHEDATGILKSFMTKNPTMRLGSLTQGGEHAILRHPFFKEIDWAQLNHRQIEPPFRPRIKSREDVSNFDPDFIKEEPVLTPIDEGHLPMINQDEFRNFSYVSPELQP
Chain of Protein kinase C theta type (Q04759 whole entry): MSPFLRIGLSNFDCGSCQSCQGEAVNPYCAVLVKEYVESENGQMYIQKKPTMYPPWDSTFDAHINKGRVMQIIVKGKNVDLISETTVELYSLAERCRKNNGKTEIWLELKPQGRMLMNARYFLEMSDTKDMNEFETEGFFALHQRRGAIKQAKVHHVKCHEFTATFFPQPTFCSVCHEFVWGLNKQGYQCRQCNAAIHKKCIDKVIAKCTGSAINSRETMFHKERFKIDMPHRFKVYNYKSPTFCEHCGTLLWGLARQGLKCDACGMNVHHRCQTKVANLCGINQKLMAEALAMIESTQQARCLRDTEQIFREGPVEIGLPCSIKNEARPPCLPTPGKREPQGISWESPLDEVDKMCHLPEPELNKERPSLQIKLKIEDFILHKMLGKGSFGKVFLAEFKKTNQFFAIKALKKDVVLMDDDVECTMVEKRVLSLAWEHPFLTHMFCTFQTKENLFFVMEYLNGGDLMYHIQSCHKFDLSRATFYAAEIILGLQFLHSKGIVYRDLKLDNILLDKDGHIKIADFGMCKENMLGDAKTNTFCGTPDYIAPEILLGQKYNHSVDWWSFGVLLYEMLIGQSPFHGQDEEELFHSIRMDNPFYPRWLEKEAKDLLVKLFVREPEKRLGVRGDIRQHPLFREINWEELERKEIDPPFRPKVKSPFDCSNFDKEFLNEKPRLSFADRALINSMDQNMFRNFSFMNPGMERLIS
Chain of Protein kinase C beta type (P05771 whole entry): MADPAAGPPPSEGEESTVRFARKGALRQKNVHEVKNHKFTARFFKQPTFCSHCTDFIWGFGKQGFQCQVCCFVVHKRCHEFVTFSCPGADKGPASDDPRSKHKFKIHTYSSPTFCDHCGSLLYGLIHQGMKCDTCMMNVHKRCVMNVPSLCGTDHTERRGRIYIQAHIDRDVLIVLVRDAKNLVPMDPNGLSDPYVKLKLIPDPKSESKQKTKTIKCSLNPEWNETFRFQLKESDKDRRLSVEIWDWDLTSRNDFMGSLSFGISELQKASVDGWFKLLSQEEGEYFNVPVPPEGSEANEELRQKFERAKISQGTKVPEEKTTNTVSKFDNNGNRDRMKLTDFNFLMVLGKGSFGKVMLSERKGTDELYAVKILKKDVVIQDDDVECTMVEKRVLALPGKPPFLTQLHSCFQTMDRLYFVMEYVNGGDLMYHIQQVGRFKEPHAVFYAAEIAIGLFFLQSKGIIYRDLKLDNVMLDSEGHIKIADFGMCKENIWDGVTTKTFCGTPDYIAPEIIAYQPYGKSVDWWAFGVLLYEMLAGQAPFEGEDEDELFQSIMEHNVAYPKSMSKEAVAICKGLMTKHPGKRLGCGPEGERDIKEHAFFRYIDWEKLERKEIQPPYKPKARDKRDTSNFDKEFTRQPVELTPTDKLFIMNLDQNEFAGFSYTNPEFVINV
T2 sequence (Q05655 whole entry): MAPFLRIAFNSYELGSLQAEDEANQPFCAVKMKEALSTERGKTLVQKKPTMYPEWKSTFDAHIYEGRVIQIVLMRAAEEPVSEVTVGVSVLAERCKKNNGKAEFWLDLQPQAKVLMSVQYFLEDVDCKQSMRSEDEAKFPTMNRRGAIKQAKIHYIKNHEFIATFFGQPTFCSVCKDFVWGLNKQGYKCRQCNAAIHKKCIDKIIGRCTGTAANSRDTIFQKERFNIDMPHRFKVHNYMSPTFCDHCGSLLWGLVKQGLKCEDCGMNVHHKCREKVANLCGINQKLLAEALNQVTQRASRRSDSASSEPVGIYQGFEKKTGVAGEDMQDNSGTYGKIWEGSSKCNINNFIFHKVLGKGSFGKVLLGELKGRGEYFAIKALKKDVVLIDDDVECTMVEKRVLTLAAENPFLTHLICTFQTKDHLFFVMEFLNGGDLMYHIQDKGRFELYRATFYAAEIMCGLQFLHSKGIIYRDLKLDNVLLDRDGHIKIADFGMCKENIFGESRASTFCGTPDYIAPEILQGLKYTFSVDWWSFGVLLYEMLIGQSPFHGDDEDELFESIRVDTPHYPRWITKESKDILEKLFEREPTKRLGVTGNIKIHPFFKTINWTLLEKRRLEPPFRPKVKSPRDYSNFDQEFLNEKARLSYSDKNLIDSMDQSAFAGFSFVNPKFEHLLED

Q: Which Ki [1] does the source give for `O=C1C[C@H](CO)OC(=O)C[C@H]2CCC[C@]3(C[C@@H](C[C@@H](CCCCc4ccccc4)O3)O1)O2` here?
A: 0.17 µM

Q: And the Ki [2]?
A: 3.5 µM

Q: And the Ki [3]?
A: 2.4 µM

Q: And the Ki [4]?
A: 0.82 µM

Q: What about the Ki [5] of the same compound?
A: 0.17 µM

Q: What about the Ki [6] of the same compound?
A: 1.6 µM

Q: What about the Ki [7] of the same compound?
A: 6.8 µM

Q: And the Ki [8]?
A: 0.18 µM

Q: For `CC1(C)CC[C@@H]2CC(=O)O[C@@H](CO)CC(=O)O[C@@H]3C[C@@H](CCCCc4cccc(O)c4)O[C@@]1(C3)O2`, which Ki [1] is on record?
A: 0.004 µM

Q: What about the Ki [2] of the same compound?
A: 0.089 µM

Q: What about the GI50 [9] of the same compound?
A: 16.6 µM

Q: What about the GI50 [10] of the same compound?
A: 19.1 µM

Q: And the GI50 [11]?
A: 3.72 µM

Q: What about the GI50 [12] of the same compound?
A: 11 µM

Q: What about the GI50 [13] of the same compound?
A: 19.1 µM

Q: What about the Activity [14] of the same compound?
A: 7.5%

Q: And the GI50 [15]?
A: 17 µM

Q: And the GI50 [16]?
A: 15.8 µM

Q: What about the GI50 [17] of the same compound?
A: 13.8 µM

Q: And the GI50 [18]?
A: 16.2 µM

Q: And the GI50 [19]?
A: 4.68 µM

Q: And the GI50 [20]?
A: 17.8 µM

Q: What about the GI50 [21] of the same compound?
A: 13.2 µM

Q: And the GI50 [22]?
A: 2.51 µM

Q: What about the GI50 [23] of the same compound?
A: 8.71 µM

Q: And the GI50 [24]?
A: 14.1 µM

Q: What about the GI50 [25] of the same compound?
A: 16.2 µM

Q: And the Ki [3]?
A: 0.063 µM

Q: And the Ki [4]?
A: 0.025 µM

Q: What about the viability at 1 µM [26] of the same compound?
A: 60%

Q: What about the GI50 [27] of the same compound?
A: 16.2 µM

Q: And the GI50 [28]?
A: 18.2 µM

Q: And the GI50 [29]?
A: 1.82 µM

Q: And the Ki [5]?
A: 0.0074 µM

Q: What about the viability at 1 µM [30] of the same compound?
A: 60%

Q: And the GI50 [31]?
A: 12.6 µM

Q: And the GI50 [32]?
A: 14.8 µM

Q: What about the GI50 [33] of the same compound?
A: 19.5 µM

Q: And the GI50 [34]?
A: 16.6 µM

Q: What about the GI50 [35] of the same compound?
A: 2.82 µM

Q: And the GI50 [36]?
A: 0.468 µM

Q: What about the GI50 [37] of the same compound?
A: 14.8 µM

Q: What about the Activity [38] of the same compound?
A: 10.4%

Q: And the GI50 [39]?
A: 20.4 µM

Q: What about the GI50 [40] of the same compound?
A: 12 µM

Q: And the Activity [41]?
A: 10.1%

Q: And the GI50 [42]?
A: 2.45 µM

Q: What about the GI50 [43] of the same compound?
A: 13.5 µM

Q: What about the viability at 0.1 µM [44] of the same compound?
A: 60%

Q: And the GI50 [45]?
A: 17.4 µM

Q: What about the GI50 [46] of the same compound?
A: 13.5 µM

Q: What about the GI50 [47] of the same compound?
A: 11.2 µM

Q: What about the viability at 0.1 µM [48] of the same compound?
A: 60%

Q: And the GI50 [49]?
A: 13.8 µM

Q: What about the Activity [50] of the same compound?
A: 9.4%

Q: What about the GI50 [51] of the same compound?
A: 10.7 µM

Q: What about the Ki [6] of the same compound?
A: 0.039 µM

Q: What about the Ki [7] of the same compound?
A: 0.14 µM

Q: What about the GI50 [52] of the same compound?
A: 17.4 µM

Q: And the Ki [8]?
A: 0.0044 µM

Q: And the GI50 [53]?
A: 4.79 µM

Q: And the GI50 [54]?
A: 15.5 µM

Q: What does the source list for `CC1(C)CC[C@@H]2CC(=O)O[C@@H](CO)CC(=O)O[C@@H]3C[C@@H](CCCCc4ccccc4)O[C@@]1(C3)O2`?
A: Ki [1]: 0.0081 µM; Ki [2]: 0.14 µM; GI50 [9]: 13.5 µM; GI50 [10]: 15.8 µM; GI50 [11]: 2.95 µM; GI50 [12]: 5.5 µM; GI50 [13]: 16.2 µM; Activity [14]: 13.1%; GI50 [15]: 11.2 µM; GI50 [16]: 12 µM; GI50 [17]: 12.6 µM; GI50 [18]: 12.3 µM; GI50 [19]: 0.813 µM; GI50 [20]: 15.1 µM; GI50 [21]: 11.2 µM; GI50 [22]: 1.48 µM; GI50 [23]: 7.24 µM; GI50 [24]: 12 µM; GI50 [25]: 13.8 µM; Ki [3]: 0.12 µM; Ki [4]: 0.037 µM; viability at 1 µM [26]: 60%; GI50 [27]: 14.1 µM; GI50 [28]: 16.6 µM; GI50 [29]: 6.76 µM; Ki [5]: 0.0098 µM; viability at 1 µM [30]: 60%; GI50 [31]: 10.5 µM; GI50 [32]: 12.9 µM; GI50 [33]: 17.8 µM; GI50 [34]: 11.5 µM; GI50 [35]: 0.891 µM; GI50 [36]: 0.525 µM; GI50 [37]: 12.3 µM; Activity [38]: 10.5%; GI50 [39]: 17 µM; GI50 [40]: 10 µM; Activity [41]: 15.2%; GI50 [42]: 2.14 µM; GI50 [43]: 13.2 µM; viability at 0.1 µM [44]: 60%; GI50 [45]: 14.8 µM; GI50 [46]: 6.76 µM; GI50 [47]: 11 µM; viability at 0.1 µM [48]: 60%; Activity [50]: 9.7%; GI50 [51]: 10.5 µM; Ki [6]: 0.08 µM; Ki [7]: 0.13 µM; GI50 [52]: 16.6 µM; Ki [8]: 0.012 µM; GI50 [53]: 3.24 µM; GI50 [54]: 11.5 µM
